From paper PMC11496352, “Synthesis of Novel Plant-Derived Encapsulated Radiolabeled Compounds for the Diagnosis of Parkinson’s Disease and the Evaluation of Biological Effects with In Vitro/In Vivo Methods” (Molecular Neurobiology, 2024)

Key:
SH-SY5Y cell line = test: Cytotoxicity study (WST) on SH-SY5Y cells; assay type: cell-based; conditions: Homo sapiens
Description: (§1) SY-SH5Y and PC-12 cell lines were used in in vitro cell culture studies. SH-SY5Y cells in a medium consisting of minimum Essential Medium (Eagle) and 10% fetal bovine serum (FBS); PC-12 cells were produced in a medium consisting of RPMI 1640 medium, 10% horse serum, and 5% fetal bovine serum (FBS). All cells were incubated in 5% CO2 and 37 °C. Fresh medium was added by changing the medium every 2 days. After the cells were produced enough to cover 80% of the flasks, they were separated from the flask by means of a 0.25% (W / V) trypsin–EDTA solution and plated in 24-well plates for incorporation studies and 96-well plates for cytotoxicity studies and study groups were formed.
(§2) Cells were prepared from SY-SH5Y and PC-12 cell suspensions at 5 × 10^4 cells / mL in each well of 96-well plates. One hundred microliters of cell suspension was added to each well-formed and the solution containing MA prepared with sterile SF at five different (10^0, 10^–1, 10^–2, 10^–3, 10^–4 nM) concentrations was added to the wells outside the control. As a negative control, media without cells and reagents were used. In the study, each parameter was studied in triplicate. The plate containing the cells was incubated at 37 °C in 5% CO2. SH-SY5Y cells were incubated at 24, 48, and 72 h of incubation by adding 10 μl of WST solution to each well and incubating for another 4 h. On other hand, MTT solution was added to PC-12 cells and incubated for 4 more hours. At the end of the incubation, the MTT solution on the cells was removed and 200 µL DMSO was added to the PC-12 cells. All cells were read using a spectrophotometer, at 450 nm wavelength and 690 nm reference range, for the absorbance value of each well. Negative control was accepted as zero absorbance and % viability values were calculated with the formula [(measured absorbance value/control value) × 100] and the same procedures were repeated for the MA-L-DOPA compound.

PC-12 cell line = test: Cytotoxicity study (MTT) on PC-12 cells; assay type: cell-based; conditions: Rattus norvegicus
Description: as §1, §2

[1] = set-up: method as in PMID 27992940; conditions: rats; cited from earlier work

| Structure (SMILES) | IC50 (SH-SY5Y cell line; 24 hour) [µM] | IC50 (SH-SY5Y cell line; 48 hour) [µM] | IC50 (SH-SY5Y cell line; 72 hour) [µM] | IC50 (PC-12 cell line; PC-12, 24 hour) [µM] | IC50 (PC-12 cell line; PC-12, 48 hour) [µM] | IC50 (PC-12 cell line; PC-12, 72 hour) [µM] | time within which uptake in the brain tissue occurs [1] [h] |
| --- | --- | --- | --- | --- | --- | --- | --- |
| CC1CCC2(C(=O)OC3OC(COC4OC(CO)C(OC5OC(C)C(O)C(OC(=O)C(N)Cc6ccc(O)c(O)c6)C5O)C(O)C4O)C(O)C(O)C3O)CCC3(C)C(=CCC4C5(C)CC(O)C(O)C(C)(CO)C5C(O)CC43C)C2C1C [MA-L-DOPA] | 12.9 ± 2.09 | 10.1 ± 2.08 | 7.16 ± 1.11 | 12.5 ± 2.21 | 10 ± 2.06 | 6.93 ± 1.09 |  |
| C[C@H]1[C@H](C)CC[C@]2(C(=O)O[C@@H]3O[C@H](CO[C@@H]4O[C@H](CO)[C@@H](O[C@@H]5O[C@@H](C)[C@H](O)[C@@H](O)[C@H]5O)[C@H](O)[C@H]4O)[C@@H](O)[C@H](O)[C@H]3O)CC[C@]3(C)C(=CC[C@@H]4[C@@]5(C)C[C@@H](O)[C@H](O)[C@@](C)(CO)[C@@H]5[C@H](O)C[C@]43C)[C@H]12 [MA, Madecassoside] | 12.9 ± 2.14 | 12.8 ± 2.24 | 7.45 ± 1.14 | 12.8 ± 2.21 | 12.6 ± 2.41 | 8.54 ± 1.37 | ≤ 1 |
